Test results reported in patent EP4653008A1, “TRADITIONAL CHINESE MEDICINE COMPOSITION HAVING EFFICACY IN TREATING COLDS AND USE THEREOF” (Shijiazhuang Yiling Pharmaceutical Co., Ltd., priority 2023, dated 2024).
Values after ≈ are worked out from the molar mass of the structure shown.

Experiments:
[1] = test system: ICR mice; experiment: writhing in mice caused by acetic acid; format: in vivo; settings: 5.00 mg/kg
Protocol: Referring to the previous studies in our laboratory and relevant literatures, the dose of indomethacin drug administered to mice was set at 5.00 mg/kg, as shown in Table 23.
A disposable syringe was used to administer the drug at a dosing volume of 10 ml/kg. Animals in the model group were administered with a corresponding volume of the solvent. The administration was carried out for 5 days.
After receiving new experimental animals, they were numbered, subjected to an adaptive feeding for 5 days and grouped as described above. All animals were fasted for more than 12 h before the last administration, and 1 h after the last administration, 0.7% acetic acid was injected into the abdominal cavity of mice at a dose of 10ml/kg to stimulate the visceral and parietal peritoneum, leading to a deep, widespread, and long-time pain. […] The latency period to the onset of writhing and the number of writhing incidents within 15 min were recorded as quantitative indicators of pain.

[2] = test system: H1HeLa; experiment: cells; format: cell-based; settings: Homo sapiens, H1-HeLa, 72 h, n=3
[3] = test system: influenza B virus (IBV); experiment: in vitro antiviral assay (CPE, CCK-8); format: cell-based; settings: MDCK host cells, n=4
[4] = test system: MDCK; experiment: in vitro cytotoxicity (CCK-8); format: cell-based, canine; settings: Canis lupus familiaris; MDCK cells; 72 h; n=3
Protocol: • (1) Test Grouping: The appropriate starting concentration of the pharmaceutical composition was selected for test grouping according to the references. All the pharmaceutical compositions were diluted with serum-free DMEM medium. For the cell control group, only serum-free DMEM medium was used. […] For the positive control drug group, oseltamivir acid as a positive drug was set up at concentrations of 1000, 500, 250, 125, 62.5, and 31.25 µM. […] Recombinant human interferon α2b gel as a positive drug was set up at final concentrations of 1000, 333.33, 111.11, […], 33.33, and 11.11 IU/mL. The blank control group contained only serum-free DMEM medium and no cells. Three replicate wells were set up for each concentration in each group. • (2) Cell Plating: Cells were prepared into a suspension single cells (1×10^4 cells/mL), seeded to a 96-well cell culture plate (100 µL/well), and incubated overnight in a 37°C, 5% CO2 incubator. • (3) Addition of Drug and Test: The culture medium was discarded and the cells were washed twice with 1×PBS. […] After cells were incubated in the incubator for 1-4 h, the OD450 nm value was read using a microplate reader. The inhibition rate of cells and the half maximal inhibitory concentration (IC50) of the tested drugs on cells were calculated. […]

[5] = test system: influenza A virus (H3N2); experiment: in vitro antiviral assay (CPE, CCK-8); format: cell-based; settings: MDCK host cells, n=4
[6] = test system: respiratory syncytial virus (RSV); experiment: in vitro antiviral assay (CPE, CCK-8); format: cell-based; settings: human respiratory syncytial virus, HEp-2 host cells, 100 TCID50, n=4
[7] = test system: Coxsackievirus B3 (CVB3); experiment: in vitro antiviral assay (CPE, CCK-8); format: cell-based; settings: Enterovirus B, LLC-MK2
[8] = test system: HEp-2; experiment: in vitro cytotoxicity (CCK-8); format: cell-based; settings: Homo sapiens; HEp-2 cells; 72 h; n=3
[9] = test system: enterovirus (EV71); experiment: in vitro antiviral assay (CPE, CCK-8); format: cell-based; settings: LLC-MK2 host cells, 100 TCID50, n=4
Protocol: • (1) Test Grouping: Concentrations were set up based on the comprehensive results of cytotoxicity assays and OD450nm, values, and literature reports on the antiviral effects of positive control drugs. The concentration without significant toxic effects on cells under microscopic observation was selected as the starting concentration for the in vitro antiviral test. […] All of them were diluted into 5 concentrations, with 4 replicate wells set up for each concentration. A virus titer of 100 TCID50 was used to infect the cells. The grouping was as follows: virus + drug group, in which the drug group included the test substance group and the positive control drug group; the virus control group (with virus and no drug), and the cell control group (with virus maintenance solution only). See Table 3 below for detail. • (2) Cell Plating: Cells were prepared into a single cell suspension (1×10^4 cells/mL), seeded into a 96-well cell culture plate at 100 µL per well, and incubated overnight in a 37°C, 5% CO2 incubator. • (3) Addition of Drug and Observation: The medium was discarded, and the cells were washed twice with 1×PBS. […] The OD450nm value of the cells was read using a microplate reader. The inhibition rates of virus by different concentrations of the test substance and their median effective concentration (EC50) against virus were calculated as follows. […]

[10] = test system: LLC-MK2; experiment: in vitro cytotoxicity (CCK-8); format: cell-based, monkey; settings: Primates; LLC-MK2 cells; 72 h; n=3
[11] = test system: Vero; experiment: in vitro cytotoxicity (CCK-8); format: cell-based, African green monkey; settings: Chlorocebus sabaeus; Vero cells; 72 h; n=3
[12] = test system: rotavirus (RV); experiment: in vitro antiviral assay (CPE, CCK-8); format: cell-based; settings: Vero
[13] = test system: parainfluenza virus (PIV); experiment: in vitro antiviral assay (CPE, CCK-8); format: cell-based; settings: LLC-MK2 host cells, 100 TCID50, n=4
[14] = test system: rhinovirus (Rhv); experiment: in vitro antiviral assay (CPE, CCK-8); format: cell-based; settings: Enterovirus, H1-HeLa

Structure (SMILES)	Latency period ([1]; onset of writhing) [s]	Number of writhing incident ([1]; within 15 min)	IC50 [2]	EC50 [3] [µM]	IC50 [4] [µM]	EC50 [5] [µM]	EC50 [6] [µg/mL]	EC50 [7] [µg/mL]	IC50 [8] [µg/mL]	EC50 [9] [µg/mL]	IC50 [10] [µg/mL]	IC50 [11] [µg/mL]	EC50 [12] [µg/mL]	EC50 [13] [µg/mL]	EC50 [14] [µg/mL]
COc1ccc2c(c1)c(CC(=O)O)c(C)n2C(=O)c1ccc(Cl)cc1 [Indomethacin, indomethacin]	736.83 ± 258.16	2.17±4.53	–	–	–	–	–	–	–	–	–	–	–	–	–
CCC(CC)O[C@@H]1C=C(C(=O)O)C[C@H](N)[C@H]1NC(C)=O [Oseltamivir acid, Oseltamivir Acid]	–	–	1 µM	0.0806	> 1000	0.931	–	–	–	–	–	–	–	–	–
NC(=O)c1ncn([C@@H]2O[C@H](CO)[C@@H](O)[C@H]2O)n1 [Ribavirin]	–	–	> 1000 µg/mL	–	–	–	> 10	102 (≈ 417 µM)	> 1000	6.03 (≈ 24.7 µM)	> 1000	> 1000	20.6 (≈ 84.5 µM)	20.9 (≈ 85.7 µM)	> 30
